In ChEMBL document CHEMBL4680149, “Biological evaluation and chemoproteomics reveal potential antibacterial targets of a cajaninstilbene-acid analogue” (Eur J Med Chem, 2020):
pIC50: −log10 of the molar value. In brackets after ≈: the same amount, converted by molar mass. Activity calls are given as the source filed them. The calls are words filed in the database; no cut-off is given here.

Columns and labels:
Staphylococcus aureus [1] = test: Antibacterial activity against methicillin resistant Staphylococcus aureus ATCC 43300 persisters assessed as eradication of colony formation at 24 to 40 ug/ml incubated for 6 hrs by colony counting method; format: functional, organism-based; conditions: dose 24-40 µg/ml
Staphylococcus aureus [2] = test: Inhibition of PG biosynthesis in Staphylococcus aureus assessed as fold change in MprF gene expression at 4 ug/ml incubated for 1 hr by qRT-PCR analysis relative to control; format: functional; conditions: dose 4.0 µg/ml
Cell membrane [3] = test: Induction of cell membrane disruption in Staphylococcus aureus ATCC 25923 at 4 ug/ml incubated for 1 hr by transmission electron microscopic analysis; format: subcellular; conditions: dose 4.0 µg/ml
Staphylococcus aureus [4] = test: Antibacterial activity against methicillin resistant Staphylococcus aureus ATCC 43300 persisters assessed as reduction in number of living bacteria at 24 to 40 ug/ml measured over 24 hrs by colony counting method; format: functional, organism-based; conditions: dose 24-40 µg/ml
Cell membrane [5] = test: Induction of cell membrane disruption in methicillin resistant Staphylococcus aureus ATCC 43300 assessed as loose cell wall at 4 ug/ml incubated for 1 hr by transmission electron microscopic analysis; conditions: dose 4.0 µg/ml
Staphylococcus aureus [6] = test: Inhibition of PG biosynthesis in Staphylococcus aureus assessed as fold change in DgkB gene expression at 4 ug/ml incubated for 1 hr by qRT-PCR analysis relative to control; format: functional; conditions: dose 4.0 µg/ml
Staphylococcus aureus [7] = test: Inhibition of PG biosynthesis in Staphylococcus aureus assessed as fold change in PlsC gene expression at 4 ug/ml incubated for 1 hr by qRT-PCR analysis relative to control; format: functional; conditions: dose 4.0 µg/ml
Staphylococcus aureus [8] = test: Binding affinity to His-tagged recombinant Staphylococcus aureus PgsA expressed in Escherichia coli Rosetta DE3 at 5 uM incubated for 1 hr followed by UV irradiation for 20 mins by in-gel fluorescence scanning analysis; conditions: time 80.0 min
Staphylococcus aureus [9] = test: Bactericidal activity against Staphylococcus aureus ATCC 25923 assessed as reduction in bacterial colony formation at 2X MIC incubated for 2 hrs by colony counting method; format: functional, organism-based
Cell membrane [10] = test: Induction of cell membrane disruption in Staphylococcus aureus ATCC 25923 assessed as loose cell wall at 4 ug/ml incubated for 1 hr by transmission electron microscopic analysis; conditions: dose 4.0 µg/ml
Staphylococcus aureus [11] = test: Antibacterial activity against Staphylococcus aureus ATCC 25923 assessed as reduction in bacterial growth measured after 60 days of serial passage; format: functional; conditions: ATCC 25923, 1440 h, time 60 day
Staphylococcus aureus [12] = test: Bactericidal activity against in Staphylococcus aureus ATCC 25923 assessed as induction of bacterial death by measuring reduction in fluorescence intensity at 4 times MIC measured upto 90 mins by DiOC5 dye based flow cytometric analysis; format: functional, organism-based; conditions: time min <=90
Staphylococcus aureus [13] = test: Inhibition of PG biosynthesis in Staphylococcus aureus assessed as fold change in PlsX gene expression at 4 ug/ml incubated for 1 hr by qRT-PCR analysis relative to control; format: functional; conditions: dose 4.0 µg/ml
Staphylococcus aureus [14] = test: Resistance index, ratio of MIC for antibacterial activity against Staphylococcus aureus ATCC 25923 measured after 60 days of serial passage to MIC for antibacterial activity against Staphylococcus aureus ATCC25923 measured after 16 hrs; format: functional
Cell membrane [15] = test: Induction of cell membrane depolarization in Staphylococcus aureus ATCC 25923 assessed as reduction in fluorescence intensity at 0.5 to 1 times MIC measured upto 90 mins by DiOC5 dye based flow cytometric analysis; format: subcellular; conditions: time min <=90
Staphylococcus aureus [16] = test: Inhibition of PG biosynthesis in Staphylococcus aureus assessed as fold change in Cls gene expression at 4 ug/ml incubated for 1 hr by qRT-PCR analysis relative to control; format: functional; conditions: dose 4.0 µg/ml
Staphylococcus aureus [17] = test: Bacteriostatic activity against Staphylococcus aureus ATCC 25923 assessed as reduction in bacterial growth at 4 ug/ml incubated for 2 hrs by colony counting method; format: functional, organism-based; conditions: dose 4.0 µg/ml
Lipid bilayer = test: Induction of pore formation in DOPC/DOPG large unilamellar vesicles assessed as calcein leakage at 0.5 to 2 times MIC measured for 30 mins by fluorescence based assay
Staphylococcus aureus [18] = test: Inhibition of PG biosynthesis in Staphylococcus aureus assessed as fold change in PlsY gene expression at 4 ug/ml incubated for 1 hr by qRT-PCR analysis relative to control; format: functional; conditions: dose 4.0 µg/ml
Cell membrane [19] = test: Induction of cell membrane disruption in methicillin resistant Staphylococcus aureus ATCC 43300 at 4 ug/ml incubated for 1 hr by transmission electron microscopic analysis; format: subcellular; conditions: dose 4.0 µg/ml
Staphylococcus aureus [20] = test: Inhibition of PG biosynthesis in Staphylococcus aureus assessed as fold change in YpfP gene expression at 4 ug/ml incubated for 1 hr by qRT-PCR analysis relative to control; format: functional; conditions: dose 4.0 µg/ml
Staphylococcus aureus [21] = test: Inhibition of PG biosynthesis in Staphylococcus aureus assessed as fold change in LtaS gene expression at 4 ug/ml incubated for 1 hr by qRT-PCR analysis relative to control; format: functional; conditions: dose 4.0 µg/ml
Staphylococcus aureus [22] = test: Bacteriostatic activity against Staphylococcus aureus ATCC 25923 assessed as reduction in bacterial growth at 4 ug/ml incubated for 16 hrs by Kirby-Bauer test method; format: functional, organism-based; conditions: dose 4.0 µg/ml
Cell membrane [23] = test: Induction of cell membrane permeabilization in Staphylococcus aureus ATCC 25923 assessed as increase in nucleic acid leakage by measuring increase in absorbance at 0.5 to 2X MIC measured every 30 mins for 5 hrs by spectrophotometry; format: subcellular
Cell membrane [24] = test: Induction of cell membrane permeabilization in methicillin resistant Staphylococcus aureus ATCC 43300 assessed as increase in nucleic acid leakage by measuring increase in absorbance at 0.5 to 2X MIC measured every 30 mins for 5 hrs by spectrophotometry; format: subcellular
RAW264.7 = test: Cytotoxicity against mouse RAW264.7 cells assessed as reduction in cell viability incubated for 48 hrs by MTT assay; format: cell-based; conditions: RAW264.7, 48 h
Staphylococcus aureus [25] = test: Inhibition of PG biosynthesis in Staphylococcus aureus assessed as fold change in CdsA gene expression at 4 ug/ml incubated for 1 hr by qRT-PCR analysis relative to control; format: functional; conditions: dose 4.0 µg/ml
Staphylococcus aureus [26] = test: Antibacterial activity against Staphylococcus aureus ATCC 25923 assessed as reduction in bacterial growth incubated for 16 hrs by broth microdilution method; format: functional

## COc1cc(/C=C/c2ccccc2F)c(C(=O)O)c(O)c1CC=C(C)C
Staphylococcus aureus [1]
  Activity: Active
Staphylococcus aureus [2]
  fold change (FC): 0.759
Cell membrane [3]
  Activity: Active
Staphylococcus aureus [4]
  Activity: Active
Cell membrane [5]
  Activity: Active
Staphylococcus aureus [6]
  fold change (FC): 1.25
Staphylococcus aureus [7]
  fold change (FC): 1.99
Staphylococcus aureus [8]
  Activity: Active
Staphylococcus aureus [9]
  Activity: Active
Cell membrane [10]
  Activity: Active
Staphylococcus aureus [11]
  MIC: 12 µg/mL (≈ 33.7 µM)
Staphylococcus aureus [12]
  Activity: Active
Staphylococcus aureus [13]
  fold change (FC): 0.577
Staphylococcus aureus [14]
  Ratio: 3
Cell membrane [15]
  Activity: Active
Staphylococcus aureus [16]
  fold change (FC): 0.558
Staphylococcus aureus [17]
  Activity: Active
Lipid bilayer
  Activity: inactive
Staphylococcus aureus [18]
  fold change (FC): 1.58
Cell membrane [19]
  Activity: Active
Staphylococcus aureus [20]
  fold change (FC): 0.446
Staphylococcus aureus [21]
  fold change (FC): 0.663
Staphylococcus aureus [22]
  Activity: Active
Cell membrane [23]
  Activity: Active
Cell membrane [24]
  Activity: Active
RAW264.7
  pIC50: 4.20
Staphylococcus aureus [25]
  fold change (FC): 1.18
Staphylococcus aureus [26]
  MIC: 4 µg/mL (≈ 11.2 µM)
